Test results published in patent publication US20170071235A1 (priority 2014, published 2017).

Key:
[1] = test system: TNF-α secretion produced by PMA-differentiated macrophages; assay type: cell-based, human
[2] = test system: IL-1β secretion produced by PMA-differentiated macrophages; assay type: cell-based, human
[3] = test system: THP-1 monocytes
[4] = thiol group; cited from earlier work

Structure (SMILES) | TNF-α secretion [1] | IL-1β response [2] | release of IL-1β [2] | effect on proliferation of THP-1 monocytes [3] | pKa [4]
CC1=C[C@H]2O[C@@H]3[C@H](O)C[C@](C)([C@@]2(CO)[C@H](O)C1=O)[C@]31CO1 [DON, deoxynivalenol] | increase in TNF-α | did not show an IL-1β response | increased the release of IL-1β | decreased the proliferation | –
C=C1[C@@H]2O[C@@H]3C=C(C)C(=O)[C@@H](O)[C@]3(CO)[C@@]1(C)C[C@H]2O [deepoxy-DON] | – | – | did not | did not | –
OCCS [mercaptoethanol, 2-mercaptoethanol] | – | – | – | – | ~9.6
